According to patent US11059875B2, “Composition for preventing or treating cardiofaciocutaneous syndrome” (Korea Advanced Institute of Science and Technology, priority 2018, dated 2021):
Entries after “also recorded” stand apart in the source; their conditions may differ.

B1: BMP4: recombinant human bone morphogenic protein 4, BMP signaling pathway activator, SEQ. ID. NO: 13 (R&D systems) (protein, listed as Homo sapiens)
chain: MIPGNRMLMVVLLCQVLLGGASHASLIPETGKKKVAEIQGHAGGRRSGQSHELLRDFEATLLQMFGLRRRPQPSKSAVIPDYMRDLYRLQSGEEEEEQIHSTGLEYPERPASRANTVRSFHHEEHLENIPGTSENSAFRFLFNLSSIPENEVISSAELRLFREQVDQGPDWERGFHRINIYEVMKPPAEVVPGHLITRLLDTRLVHHNVTRWETFDVSPAVLRWTREKQPNYGLAIEVTHLHQTRTHQGQHVRISRSLPQGSGNWAQLRPLLVTFGHDGRGHALTRRRRAKRSPKHHSQRARKKNKNCRRHSLYVDFSDVGWNDWIVAPPGYQAFYCHGDCPFPLADHLNSTNHAIVQTLVNSVNSSIPKACCVPTELSAISMLYLDEYDKVVLKNYQEMVVEGCGCR

Tests used:
Type in all cases: cell-based, human
[1] = tested on: osteoblasts differentiated from CFC-MSCs; assay: Bone mineral deposition (alizarin red S and von Kossa staining) in osteoblasts differentiated from CFC-MSCs; settings: treated on day 1 for 24 hours (U0126 5 μM, SB-431542 5 μM, BMP4 50 ng/ml), alizarin red S day 14, von Kossa day 21, FIG. 14
Protocol: (§1) To differentiate into osteoblasts, the MSCs were treated with 0.25% trypsin-EDTA at 37° C. for 2 minutes and separated from the culture dish. The cells were spread on a 4-well culture dish at the density of 2.5×10^4 cells/cm^2, which were cultured in MSC culture medium at 37° C. for 3 days until the cells were full. 3 days later, the medium was replaced with STEMPRO osteogenesis differentiation Medium (Invitrogen), and the medium was replaced every three days. The activity of ALP, which is an enzyme essential for the formation of hydroxyapatite, a major component of bone mineral, and an indicator of osteoblast differentiation, was investigated at 7 day intervals by using an ALP kit (Leucocyte Alkaline Phosphatase Kit, Sigma-Aldrich). […] The cells were washed with distilled water twice and the degree of color change into red was measured to investigate the calcium ion deposition.
(§2) Particularly, the differentiation of CFC-MSCs into osteoblasts was induced by the same manner as described in Experimental Example <2-2>. […] ALP enzyme activity was measured on the 7th day of the differentiation, and alizarin red S staining was performed on the 14th day of the differentiation by the same manner as described in Experimental Example <2-2>. […] After washing the cells with distilled water twice, the amount of calcium deposition was evaluated by the degree of darkening.

[2] = tested on: osteoblasts differentiated from CFC-MSCs; assay: ALP enzyme activity (ALP kit staining) in osteoblasts differentiated from CFC-MSCs; settings: treated on day 1 for 24 hours (U0126 5 μM, SB-431542 5 μM, BMP4 50 ng/ml), measured on 7th day of differentiation, FIG. 13
Protocol: as §1, §2

[3] = tested on: osteoblasts differentiated from CFC-iPSCs; assay: Differentiation of CFC syndrome patient derived iPSCs into osteoblasts through mesenchymal stem cells; settings: CFC patient iPSC-derived cells; FIG. 13 to FIG. 15
Text: […] The iPSCs derived from wild type (WT) individuals and the iPSCs derived from CFC syndrome patients were induced to be differentiated in vitro for about 30 days by referring to the protocol proposed in a previous paper (Mahmood, Harkness et al. 2010). Particularly, CFC-iPSC colony was divided into 4 to 9 sections (0.5 mm×0.5 mm/each section) by using a tissue chopper provided from Mickle Laboratory Engineering Co. The sections were treated with 10 mg/ml of dispase at 37° C. for 4 minutes and then the sections were detached from the cell culture dish. The separated cell sections were transferred in a Petri dish, followed by culture in EB medium (embryoid body differentiation medium), the Dulbecco's modified Eagle's medium (DMEM/F12) supplemented with 10% serum replacement (SR), 1% penicillin-streptomycin and 1% non-essential amino acids, for a day. […]
To differentiate into osteoblasts, the MSCs were treated with 0.25% trypsin-EDTA at 37° C. for 2 minutes and separated from the culture dish. […] The cells were washed with distilled water twice and the degree of color change into red was measured to investigate the calcium ion deposition. […]

Molecule	bone mineral deposition [1]	ALP enzyme activity [2]	differentiation ability into osteoblasts [3]
NC(=O)c1ccc(-c2nc(-c3ccc4c(c3)OCO4)c(-c3ccccn3)[nH]2)cc1 [SB-431542]	increase	increase	improved; also recorded: efficient in improving the differentiation ability
B1	increase	increase	efficient in improving the differentiation ability
